Key:
[1] = system: JAK1-dependent STAT6 phosphorylation downstream of IL-13 stimulation in BEAS-2B cells; assay: JAK1 pathway assay in cell lines: IL-13 p-STAT6 BEAS-2B; format: cell-based; conditions: BEAS-2B human bronchial epithelial cells, 1 hr compound, IL-13 15 min, MSD readout
Method in brief: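 Phospho-STAT6 read by MSD electrochemiluminescence in lysates of BEAS-2B cells kept in complete growth medium. Cells were pretreated 1 hr at 37 °C with compound (0.2% DMSO final) and stimulated 15 min with IL-13 at its EC90; EC50 is the concentration halving signal versus DMSO.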

[2] = target: T1, isolated recombinant JAK1 kinase domain (Homo sapiens, UniProt P23458); assay: JAK enzyme assay, JAK1 kinase domain (Caliper LabChip); format: biochemical; conditions: 1.5 nM JAK1, ATP 25 μM, Morrison tight binding model
T1 construct: isolated recombinant JAK1 and JAK2 kinase domain
Method in brief: (§1)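 Ki values were obtained by Morrison tight-binding analysis with ATP-competitive correction, Ki=Ki,app/(1+[ATP]/Km,app). Phosphorylated versus total fluorescent JAK3-derived peptide was quantified on a Caliper LabChip. Kinase reactions with the isolated recombinant domains ran 30 min at 22 °C before EDTA quench (50 mM final).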

[3] = target: T2, isolated recombinant JAK2 kinase domain (Homo sapiens, UniProt O60674); assay: JAK enzyme assay, JAK2 kinase domain (Caliper LabChip); format: biochemical; conditions: 0.2 nM JAK2, ATP 25 μM, Morrison tight binding model
T2 construct: isolated recombinant JAK1 and JAK2 kinase domain
Method in brief: as §1

T2 sequence (O60674 849-1124 limits assumed): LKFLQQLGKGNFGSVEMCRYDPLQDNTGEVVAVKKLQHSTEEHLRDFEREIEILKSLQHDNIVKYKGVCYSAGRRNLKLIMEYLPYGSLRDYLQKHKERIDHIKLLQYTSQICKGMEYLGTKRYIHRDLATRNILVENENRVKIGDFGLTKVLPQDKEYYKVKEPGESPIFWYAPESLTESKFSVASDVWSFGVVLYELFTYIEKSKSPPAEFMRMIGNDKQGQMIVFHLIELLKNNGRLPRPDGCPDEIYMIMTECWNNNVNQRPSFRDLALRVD
T1 sequence (P23458 875-1153 limits assumed): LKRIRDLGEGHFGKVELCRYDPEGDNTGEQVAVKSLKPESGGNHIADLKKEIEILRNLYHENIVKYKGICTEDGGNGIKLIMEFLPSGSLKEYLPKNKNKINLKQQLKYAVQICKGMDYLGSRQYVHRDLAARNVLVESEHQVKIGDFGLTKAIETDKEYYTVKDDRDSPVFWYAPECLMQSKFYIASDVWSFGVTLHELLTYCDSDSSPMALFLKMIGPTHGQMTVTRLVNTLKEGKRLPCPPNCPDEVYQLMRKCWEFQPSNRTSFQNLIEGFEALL

Structure (SMILES)	Ki [2]	Ki [3]	EC50 [1]
CCc1cnn(C2(CC#N)CN(c3cccn4nc(Nc5cnn(CC(=O)N6CCC(CN7CCN(C(=O)OC)CC7)CC6)c5)nc34)C2)c1 [Example 39, methyl4-[[1-[2-[4-[[8-[3-(cyanomethyl)-3-(4-ethylpyrazol-1-yl)azetidin-1-yl]-[1,2,4]triazolo[1,5-a]pyridin-2-yl]amino]pyrazol-1-yl]acetyl]-4-piperidyl]methyl]piperazine-1-carboxylate]	0.3 nM	1.6 nM	24 nM
Cc1ccccc1-c1cnn(C2(CC#N)CN(c3cccn4nc(Nc5cnn(CC(=O)N6CCC(NCC7(C#N)CC7)CC6)c5)nc34)C2)c1 [Example 118, 1-[[[1-[2-[4-[[8-[3-(cyanomethyl)-3-[4-(o-tolyl)pyrazol-1-yl]azetidin-1-yl]-[1,2,4]triazolo[1,5-a]pyridin-2-yl]amino]pyrazol-1-yl]acetyl]-4-piperidyl]amino]methyl]cycl opropanecarbonitrile]	1.1 nM	7.3 nM	99 nM
CCc1cnn(C2(CC#N)CN(c3cccn4nc(Nc5cnn(CC(=O)N6CCN(CC)CC6)c5)nc34)C2)c1 [Example 41]	0.5 nM	1.9 nM	65 nM
CCc1cnn(C2(CC#N)CN(c3cccn4nc(Nc5ccc(C(=O)N6CCN(C)CC6)c(F)c5)nc34)C2)c1 [Example 91, 2-[3-(4-ethylpyrazol-1-yl)-1-[2-[3-fluoro-4-(4-methylpiperazine-1-carbonyl)anilino]-[1,2,4]triazolo[1,5-a]pyridin-8-yl]azetidin-3-yl]acetonitrile]	0.4 nM	0.9 nM	213 nM
CSc1cccc(C2(CC#N)CN(c3cccn4nc(Nc5cnn(CC(=O)N6CCN(C)CC6)c5)nc34)C2)c1 [Example 78]	0.3 nM	0.9 nM	17 nM
CN1CCN(C(=O)Cn2cc(Nc3nc4c(N5CC(CC#N)(n6cc(C7CC7)cn6)C5)cccn4n3)cn2)CC1 [Example 43, 2-[3-(4-cyclopropylpyrazol-1-yl)-1-[2-[[1-[2-(4-methylpiperazin-1-yl)-2-oxo-ethyl]pyrazol-4-yl]amino]-[1,2,4]triazolo[1,5-a]pyridin-8-yl]azetidin-3-yl]acetonitrile]	0.6 nM	4 nM	48 nM
N#CCC1(c2cccc(Cl)c2)CN(c2cccn3nc(Nc4cnn(CC(=O)N5CCC(NC6COC6)CC5)c4)nc23)C1 [Example 93, 2-[3-(3-chlorophenyl)-1-[2-[[1-[2-[4-(oxetan-3-ylamino)-1-piperidyl]-2-oxo-ethyl]pyrazol-4-yl]amino]-[1,2,4]triazolo[1,5-a]pyridin-8-yl]azetidin-3-yl]acetonitrile]	0.4 nM	0.7 nM	79 nM
N#CCC1(n2cc(C(F)(F)F)cn2)CN(c2cccn3nc(Nc4ccc(CC(=O)N5CCN(C6COC6)CC5)cc4)nc23)C1 [Example 115, 2-[1-[2-[4-[2-[4-(oxetan-3-yl)piperazin-1-yl]-2-oxo-ethyl]anilino]-[1,2,4]triazolo[1,5-a]pyridin-8-yl]-3-[4-(trifluoromethyl)pyrazol-1-yl]azetidin-3-yl]acetonitrile]	2.4 nM	22.9 nM	139 nM
CCc1cnn(C2(CC#N)CN(c3cccn4nc(Nc5cnn(CC(=O)N6CCC(CN7CCOCC7)CC6)c5)nc34)C2)c1 [Example 53, 2-[3-(4-ethylpyrazol-1-yl)-1-[2-[[1-[2-[4-(morpholinomethyl)-1-piperidyl]-2-oxo-ethyl]pyrazol-4-yl]amino]-[1,2,4]triazolo[1,5-a]pyridin-8-yl]azetidin-3-yl]acetonitrile]	0.9 nM	0.6 nM	31 nM
CC(C)c1cnn(C2(CC#N)CN(c3cccn4nc(Nc5cnn(CC(=O)N6CCN(C)CC6)c5)nc34)C2)c1 [Example 56, formic acid;2-[3-(4-isopropyipyrazol-1-yl)-1-[2-[[1-[2-(4-methylpiperazin-1-yl)-2-oxo-ethyl]pyrazol-4-yl]amino]-[1,2,4]triazolo[1,5-a]pyridin-8-yl]azetidin-3-yl]acetonitrile]	2.3 nM	10.5 nM	319 nM
CCc1cnn(C2(CC#N)CN(c3cccn4nc(Nc5ccc(C(=O)NCCCN6CCOCC6)cc5)nc34)C2)c1 [Example 67, 4-[[8-[3-(cyanomethyl)-3-(4-ethylpyrazol-1-yl)azetidin-1-yl]-[1,2,4]triazolo[1,5-a]pyridin-2-yl]amino]-N-(3-morpholinopropyl)benzamide]	0.5 nM	1.1 nM	167 nM
CCc1cnn(C2(CC#N)CN(c3cccn4nc(Nc5cnn(CC(=O)N6CCC(N(C)CC(C)(C)C#N)CC6)c5)nc34)C2)c1 [Example 52, 3-[[1-[2-[4-[[8-[3-(cyanomethyl)-3-(4-ethylpyrazol-1-yl)azetidin-1-yl]-[1,2,4]triazolo[1,5-a]pyridin-2-yl]amino]pyrazol-1-yl]acetyl]-4-piperidyl]-methyl-amino]-2,2-dimethyl-propanenitrile]	0.2 nM	0.5 nM	13 nM
CSc1ccc(C2(CC#N)CN(c3cccn4nc(Nc5cnn(CC(=O)N6CCN(C)CC6)c5)nc34)C2)cc1 [Example 14]	1.8 nM	4.5 nM	72 nM
CN1CCN(C(=O)Cn2cc(Nc3nc4c(N5CC(CC#N)(n6cc(F)cn6)C5)cccn4n3)cn2)CC1 [Example 19, 2-[3-(4-fluoropyrazol-1-yl)-1-[2-[[1-[2-(4-methylpiperazin-1-yl)-2-oxo-ethyl]pyrazol-4-yl]amino]-[1,2,4]triazolo[1,5-a]pyridin-8-yl]azetidin-3-yl]acetonitrile]	4.4 nM	4 nM	255 nM

Now from value to compound, other results behind:

Ki [2]	Ki [3]	Structure (SMILES)	EC50 [1]
0.2 nM	0.2 nM	N#CCC1(n2cc(Br)cn2)CN(c2cccn3nc(Nc4cn[nH]c4)nc23)C1 [Example 128, 2-[3-(4-bromopyrazol-1-yl)-1-[2-(1H-pyrazol-4-ylamino)-[1,2,4]triazolo[1,5-a]pyridin-8-yl]azetidin-3-yl]acetonitrile]	8 nM
0.3 nM	0.6 nM	N#CCC1(n2cc(CCF)cn2)CN(c2cccn3nc(Nc4cn[nH]c4)nc23)C1 [Example 149, 2-[3-[4-(2-fluoroethyl)pyrazol-1-yl]-1-[2-(1H-pyrazol-4-ylamino)-[1,2,4]triazolo[1,5-a]pyridin-8-yl]azetidin-3-yl]acetonitrile]	21 nM
0.4 nM	0.5 nM	Cn1cc(Nc2nc3c(N4CC(CC#N)(n5cc(C6CC6)cn5)C4)cccn3n2)cn1 [Example 142, 2-[3-(4-cyclopropylpyrazol-1-yl)-1-[2-[(l-methylpyrazol-4-yl)amino]-[1,2,4]triazolo[1,5-a]pyridin-8-yl]azetidin-3-yl]acetonitrile]	14 nM
0.2 nM	0.3 nM	Cn1cc(Nc2nc3c(N4CC(CC#N)(n5cc(OC(F)F)cn5)C4)cccn3n2)cn1 [Example 145, 2-[3-[4-(difluoromethoxy)pyrazol-1-yl]-1-[2-[(l-methylpyrazol-4-yl)amino]-[1,2,4]triazolo[1,5-a]pyridin-8-yl]azetidin-3-yl]acetonitrile]	6 nM
0.3 nM	0.6 nM	CSc1cnn(C2(CC#N)CN(c3cccn4nc(Nc5cnn(C)c5)nc34)C2)c1 [Example 147, 2-[1-[2-[(1-methylpyrazol-4-yl)amino]-[1,2,4]triazolo[1,5-a]pyridin-8-yl]-3-(4-methylsulfanylpyrazol-1-yl)azetidin-3-yl]acetonitrile]	10 nM
0.7 nM	0.1 nM	CCc1cnn(C2(CC#N)CN(c3cccn4nc(Nc5cnn[nH]5)nc34)C2)c1 [Example 152, 2-(1-(2-((1H-1,2,3-triazol-5-yl)amino)-[1,2,4]triazolo[1,5-a]pyridin-8-yl)-3-(4-ethyl-1H-pyrazol-1-yl)azetidin-3-yl)acetonitrile]	5 nM
0.4 nM	0.9 nM	COc1cnn(C2(CC#N)CN(c3cccn4nc(Nc5cn[nH]c5)nc34)C2)c1 [Example 139, 2-[3-(4-methoxypyrazol-1-yl)-1-[2-(1H-pyrazol-4-ylamino)-[1,2,4]triazolo[1,5-a]pyridin-8-yl]azetidin-3-yl]acetonitrile]	39 nM
0.1 nM	0.2 nM	N#CCC1(n2cc(C3CC3)cn2)CN(c2cccn3nc(Nc4cn[nH]c4)nc23)C1 [Example 140, 2-[3-(4-cyclopropylpyrazol-1-yl)-1-[2-(1H-pyrazol-4-ylamino)-[1,2,4]triazolo[1,5-a]pyridin-8-yl]azetidin-3-yl]acetonitrile]	11 nM
0.9 nM	0.8 nM	N#CCC1(n2cc(C(F)(F)F)cn2)CN(c2cccn3nc(Nc4cnn(CCCO)c4)nc23)C1 [Example 136]	20 nM
0.1 nM	0.1 nM	CC(C)c1cnn(C2(CC#N)CN(c3cccn4nc(Nc5cn[nH]c5)nc34)C2)c1 [Example 141, 2-[3-(4-isopropylpyrazol-1-yl)-1-[2-(1H-pyrazol-4-ylamino)-[1,2,4]triazolo[1,5-a]pyridin-8-yl]azetidin-3-yl]acetonitrile]	9 nM
